{"source": "patent US12036226B2", "about": "“Methods of treating subjects having diabetes with chronic kidney disease” (Poxel SA, priority 2018, dated 2024)", "key": {"[1]": {"tested_on": "Japanese type 2 diabetic subjects", "assay": "Phase 2b dose-ranging placebo-controlled 24-week study in Japanese type 2 diabetic subjects", "assay_type": "in vivo, human", "method": "A Dose-Ranging, Randomized, Double-Blind, Placebo-Controlled, Parallel-Group, Multi-Center Study of the Efficacy and Safety of 3 Doses of Imeglimin after 24 Weeks of Treatment in Japanese Type 2 Diabetic Subjects\nIn this study, a total of 299 subjects with T2DM received either imeglimin at one of the 3 doses (500, 1000 and 1500 mg bid) or placebo. The primary objective of this study was to assess the dose-response of imeglimin at 3 doses (500, 1000 and 1500 mg bid) compared to placebo in male and female subjects with T2DM after 24 weeks of treatment, using glycosylated hemoglobin (HbA1c) as the primary endpoint. Inclusion Criteria: subjects have an eGFR of ≥50 mL/min/1.73 m^2 at screening and >=45 at pre randomization visit. A total of 299 subjects were randomized 1:1:1:1 to one of the 4 study arms, with 268 subjects completing the study.\nPercentage of responders was defined as the percentage of subjects who reached a value of HbA1c≤7% at the end of the 24-week double-blind treatment period. The analysis was performed using the FAS for subjects with an HbA1c value greater than 7.0% at baseline.\nIn a post-hoc analysis, efficacy and safety/tolerability profile was investigated in patients depending on their renal function (CKD 1=eGFR≥90 mL/min/1.73 m^2, CKD2=60≤eGFR<90 mL/min/1.73 m^2, CKD3A=45≤eGFR<60 mL/min/1.73 m^2). 299 patients were randomized 74% of the patients had CKD2, 14% had CKD1, and 12% CKD3A, respectively. The primary endpoint was met with a statistically significant dose-dependent placebo subtracted decrease in HbA1c at the 3 doses with the 2 top doses of 1,000 and 1,500 mg bid reaching an HbA1c decrease of −0.94% and −1.00% respectively (Table 5). […] There were no major differences in the incidence of AE, SAE or AE leading to treatment discontinuation."}, "[2]": {"tested_on": "Japanese patients with type 2 diabetes (T2DM)", "assay": "24-week Phase III placebo-controlled monotherapy study in Japanese patients with type 2 diabetes", "assay_type": "in vivo, human", "settings": "for HbA1c LSM Difference vs. Placebo, Week 24 / Change in HbA1c from baseline, Week 24 LS Mean (SE) / HbA1c LSM Difference vs. Placebo (SE), Week 24: 1000 mg BID", "method": "A 24-Week Phase III, Randomized, Double-Blind, Placebo-Controlled, Monotherapy Study to Assess the Efficacy, Safety and Tolerability of Imeglimin Administered Orally in Japanese Patients with Type 2 Diabetes (T2DM)\nA total of 213 subjects were randomized in a 1:1 ratio to receive either imeglimin (1000 mg BID) or placebo BID for 24 weeks, with 194 subjects completing the study without Investigational Medicinal Product (IMP) discontinuation. The primary objective of this study was to determine the change in HbA1c from baseline after 24 weeks of imeglimin treatment compared to placebo. Secondary endpoints of the trial included fasting plasma glucose along with other standard glycemic and non-glycemic parameters. Subjects were to have an eGFR of ≥50 mL/min/1.73 m^2 at Screening and ≥45 mL/min/1.73 m^2 at Pre-randomization."}, "[3]": {"tested_on": "acute renal failure (ARF) rat model", "settings": "for plasma glucose: normal rats", "protocol": "The creatinine level, correlated with the degree of the renal function failure, was tested for each rat 7 days after the first injection of gentamicin. […] The creatinine level was determined on the Monarch Chemistry Systems using the IL Test creatinine in rat plasma samples. This monochromatic analysis is based on the formation of a red colored complex between creatinine and picric acid under alkaline conditions."}, "subjects with T2DMs": {"tested_on": "subjects with T2DMs", "assay": "Earlier studies in subjects with T2DM for up to 24 weeks (monotherapy, add on to metformin and sitagliptin)", "assay_type": "in vivo, human"}, "[4]": {"assay": "Pharmacokinetics of imeglimin (dose proportionality, excretion pathway)", "assay_type": "in vivo"}, "[5]": {"settings": "Normal eGFR (eGFR > 90 mL/min/1.73 m^2), 500 mg BID"}, "[6]": {"settings": "Normal eGFR (eGFR > 90 mL/min/1.73 m^2), 500 mg BID, N 9"}, "[7]": {"settings": "Normal eGFR (eGFR > 90 mL/min/1.73 m^2), 1000 mg BID"}, "[8]": {"settings": "Normal eGFR (eGFR > 90 mL/min/1.73 m^2), 1000 mg BID, N 9"}, "[9]": {"settings": "Normal eGFR (eGFR > 90 mL/min/1.73 m^2), 1500 mg BID"}, "[10]": {"settings": "Normal eGFR (eGFR > 90 mL/min/1.73 m^2), 1500 mg BID, N 14"}}, "note": "Where two headings read alike, the source gives them in different places.", "data": [{"smiles": "C[C@H]1N=C(N(C)C)N=C(N)N1", "note": "[imeglimin, (6R)—N^2, N^2,6-trimethyl-3,6-dihydro-1,3,5-triazine-2,4-diamine]", "values": [{"measurement": "Change in HbA1c from baseline, Week 24 LS Mean (SEM)", "setting": "[1]; CKD Stage 3a (eGFR < 60 mL/min/1.73 m^2), 1500 mg BID, N 8", "result": "−0.86 (0.265) %"}, {"measurement": "HbA1c LSM Difference vs. Placebo (SEM), Week 24", "setting": "[1]; CKD Stage 3a (eGFR < 60 mL/min/1.73 m^2), 1500 mg BID, listed as Imeglimin", "result": "−1.07 (0.353) %"}, {"measurement": "incidence of subjects presenting with Treatment Emergent (TE) AE", "setting": "[1]; Imeglimin 1000 mg", "result": 62.2, "unit": "%"}, {"measurement": "incidence of subjects presenting with any adverse event (AE)", "setting": "[1]; Imeglimin 1000 mg", "result": 73, "unit": "%"}, {"measurement": "incidence of subjects presenting with Treatment Emergent (TE) AE", "setting": "[1]; Imeglimin 1500 mg", "result": 73.3, "unit": "%"}, {"measurement": "incidence of subjects presenting with any adverse event (AE)", "setting": "[1]; Imeglimin 1500 mg", "result": 77.3, "unit": "%"}, {"measurement": "FPG LSM Difference vs. Placebo, Week 24", "setting": "[1]; [5]", "result": 14.5, "unit": "mg/dL"}, {"measurement": "HbA1c LSM Difference vs. Placebo (SEM), Week 24", "setting": "[1]; [5]", "result": "−0.01 (0.290) %"}, {"measurement": "Change in FPG from baseline, Week 24 LS Mean", "setting": "[1]; [6]", "result": 15.9, "unit": "mg/dL"}, {"measurement": "Change in HbA1c from baseline, Week 24 LS Mean (SEM)", "setting": "[1]; [6]", "result": "0.04 (0.221) %"}, {"measurement": "FPG LSM Difference vs. Placebo, Week 24", "setting": "[1]; [7]", "result": -28.1, "unit": "mg/dL"}, {"measurement": "HbA1c LSM Difference vs. Placebo (SEM), Week 24", "setting": "[1]; [7]", "result": "−0.85 (0.283) %"}, {"measurement": "Change in FPG from baseline, Week 24 LS Mean", "setting": "[1]; [8]", "result": -26.6, "unit": "mg/dL"}, {"measurement": "Change in HbA1c from baseline, Week 24 LS Mean (SEM)", "setting": "[1]; [8]", "result": "−0.8 (0.213) %"}, {"measurement": "FPG LSM Difference vs. Placebo, Week 24", "setting": "[1]; [9]", "result": 5.1, "unit": "mg/dL"}, {"measurement": "HbA1c LSM Difference vs. Placebo (SEM), Week 24", "setting": "[1]; [9]", "result": "−0.47 (0.260) %"}, {"measurement": "Change in FPG from baseline, Week 24 LS Mean", "setting": "[1]; [10]", "result": 6.6, "unit": "mg/dL"}, {"measurement": "Change in HbA1c from baseline, Week 24 LS Mean (SEM)", "setting": "[1]; [10]", "result": "−0.42 (0.175) %"}, {"measurement": "incidence of TEAE considered as related to the study drug", "setting": "[1]; imeglimin 500 mg (placebo 8%)", "result": 5.3, "unit": "%"}, {"measurement": "incidence of TEAE from the gastrointestinal disorder SOC", "setting": "[1]; imeglimin 500 mg (placebo 14.7%)", "result": 14.7, "unit": "%"}, {"measurement": "serious TEAEs", "setting": "[1]; imeglimin 500 mg bid", "result": "none"}, {"measurement": "incidence of TEAE considered as related to the study drug", "setting": "[1]; imeglimin 1000 mg (placebo 8%)", "result": 5.4, "unit": "%"}, {"measurement": "incidence of TEAE from the gastrointestinal disorder SOC", "setting": "[1]; imeglimin 1000 mg (placebo 14.7%)", "result": 18.9, "unit": "%"}, {"measurement": "serious TEAEs", "setting": "[1]; imeglimin 1000 mg bid", "result": 5.4, "unit": "%"}, {"measurement": "incidence of TEAE considered as related to the study drug", "setting": "[1]; imeglimin 1500 mg (placebo 8%)", "result": 24, "unit": "%"}, {"measurement": "incidence of TEAE from the gastrointestinal disorder SOC", "setting": "[1]; imeglimin 1500 mg (placebo 14.7%)", "result": 32, "unit": "%"}, {"measurement": "serious TEAEs", "setting": "[1]; imeglimin 1500 mg bid", "result": 1.3, "unit": "%"}, {"measurement": "HbA1c LSM Difference vs. Placebo, Week 24", "setting": "[2]; CKD Stage 2 (eGFR = 60-90 mL/min/1.73 m^2)", "result": "−0.96", "unit": "%"}, {"measurement": "Change in HbA1c from baseline, Week 24 LS Mean (SE)", "setting": "[2]; CKD Stage 2 (eGFR = 60-90 mL/min/1.73 m^2), N 66", "result": "−0.82 (0.08) %"}, {"measurement": "HbA1c LSM Difference vs. Placebo, Week 24", "setting": "[2]; CKD Stage 2 (eGFR = 60-90 mL/min/1.73 m^2), listed as Imeglimin", "result": "−0.96 (0.11) %"}, {"measurement": "HbA1c LSM Difference vs. Placebo, Week 24", "setting": "[2]; CKD Stage 3a (eGFR < 60 mL/min/1.73 m^2)", "result": "−0.70", "unit": "%"}, {"measurement": "Change in HbA1c from baseline, Week 24 LS Mean (SE)", "setting": "[2]; CKD Stage 3a (eGFR < 60 mL/min/1.73 m^2), N 21", "result": "−0.66 (0.13) %"}, {"measurement": "HbA1c LSM Difference vs. Placebo, Week 24", "setting": "[2]; CKD Stage 3a (eGFR < 60 mL/min/1.73 m^2), listed as Imeglimin", "result": "−0.70 (0.19) %"}, {"measurement": "HbA1c LSM Difference vs. Placebo (SE), Week 24", "setting": "[2]; Normal eGFR (eGFR > 90 mL/min/1.73 m^2)", "result": "−0.59", "unit": "%"}, {"measurement": "Change in HbA1c from baseline, Week 24 LS Mean (SE)", "setting": "[2]; Normal eGFR (eGFR > 90 mL/min/1.73 m^2), N 11", "result": "−0.33 (0.20) %"}, {"measurement": "HbA1c LSM Difference vs. Placebo (SE), Week 24", "setting": "[2]; Normal eGFR (eGFR > 90 mL/min/1.73 m^2), listed as Imeglimin", "result": "−0.59 (0.32) %"}, {"measurement": "A1C lowering compared to placebo", "setting": "[2]; pre-specified analysis, stage 2 and 3a CKD (eGFR <90 mL/min/1.73 m^2, n=178)", "result": "improvement in A1C lowering as compared to placebo"}, {"measurement": "plasma glucose", "setting": "[3]; 180 minutes, imeglimin and metformin 100 mg/h/kg, phenformin 50 mg/h/kg i.v.", "result": "5.4 ± 0.4", "unit": "mmol/L"}, {"measurement": "plasma glucose", "setting": "[3]; i.v. perfusion 100 mg/h/kg, 60 minutes (basal 7.6±0.4)", "result": "6.5 ± 0.4", "unit": "mmol/L"}, {"measurement": "effect on plasma [HCO3−]", "setting": "[3]; rat, in vivo", "result": "significantly decreased plasma [HCO3^−]vs. basal period but not vs. control group"}, {"measurement": "effect on plasma lactate", "setting": "[3]; rat, in vivo", "result": "did not significantly increase plasma lactate"}, {"measurement": "effect on plasma lactate level", "setting": "[3]; rat, in vivo", "result": "did not change plasma lactate level"}, {"measurement": "plasma H+ concentration / metabolic acidosis signs", "setting": "[3]; rat, in vivo", "result": "Metabolic acidosis signs with imeglimin treatment were not observed"}, {"measurement": "plasma accumulation", "setting": "[3]; rat, in vivo", "result": "plasma accumulation of metformin and imeglimin was observed"}, {"measurement": "severe hypoglycemia", "setting": "[3]; rat, in vivo", "result": "severe hypoglycemia was not observed"}, {"measurement": "decrease in plasma glucose", "setting": "[3]; rats with mild or high ARF", "result": "significant and time-dependent"}, {"measurement": "tolerability / safety profile", "setting": "subjects with T2DMs", "result": "well-tolerated with a safety profile comparable to that of placebo"}, {"measurement": "dose proportionality of exposures", "setting": "[4]; 250 to 2000 mg range", "result": "less than dose proportional exposures"}, {"measurement": "main excretion pathway", "setting": "[4]; in vivo", "result": "renal elimination as the main excretion pathway"}]}]}
